Source: PubChem BioAssay (NCI)
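Five compound concentrations were applied to cells in 96-well plates for 48 hours; endpoints were derived by simple linear interpolation of the resulting dose-response curve. TGI marks complete inhibition of growth.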

How the values were obtained:
Assay in all cases: NCI tumour cell line growth inhibition, 48 h
A498 renal = system: A498 renal
XF 498 CNS = system: XF 498 CNS
DLD-1 colon = system: DLD-1 colon
TK-10 renal = system: TK-10 renal
M19-MEL melanoma = system: M19-MEL melanoma
SNB-75 CNS = system: SNB-75 CNS
IGROV1 ovarian = system: IGROV1 ovarian
MOLT-4 leukemia = system: MOLT-4 leukemia
RXF-631 renal = system: RXF-631 renal
EKVX NSCLC = system: EKVX NSCLC
DMS 114 small cell lung = system: DMS 114 small cell lung
HOP-62 NSCLC = system: HOP-62 NSCLC
K-562 leukemia = system: K-562 leukemia
OVCAR-8 ovarian = system: OVCAR-8 ovarian
OVCAR-3 ovarian = system: OVCAR-3 ovarian
RXF 393 renal = system: RXF 393 renal
KM20L2 colon = system: KM20L2 colon
SF-295 CNS = system: SF-295 CNS
SF-539 CNS = system: SF-539 CNS
NCI-H460 lung = system: NCI-H460 lung
HCT-15 colon = system: HCT-15 colon
786-0 renal = system: 786-0 renal
SF-268 CNS = system: SF-268 CNS
UO-31 renal = system: UO-31 renal
DMS 273 small cell lung = system: DMS 273 small cell lung
UACC-257 melanoma = system: UACC-257 melanoma
UACC-62 melanoma = system: UACC-62 melanoma
SNB-19 CNS = system: SNB-19 CNS
HT29 colon = system: HT29 colon
SK-MEL-5 melanoma = system: SK-MEL-5 melanoma
KM12 colon = system: KM12 colon
HCT-116 colon = system: HCT-116 colon
COLO 205 colon = system: COLO 205 colon
MALME-3M melanoma = system: MALME-3M melanoma
SK-MEL-28 melanoma = system: SK-MEL-28 melanoma
OVCAR-4 ovarian = system: OVCAR-4 ovarian
M14 melanoma = system: M14 melanoma
SK-MEL-2 melanoma = system: SK-MEL-2 melanoma
A549 NSCLC = system: A549 NSCLC
SK-OV-3 ovarian = system: SK-OV-3 ovarian
ACHN renal = system: ACHN renal
SNB-78 CNS = system: SNB-78 CNS
RPMI-8226 leukemia = system: RPMI-8226 leukemia
SN12C renal = system: SN12C renal
LOX IMVI melanoma = system: LOX IMVI melanoma
CCRF-CEM leukemia = system: CCRF-CEM leukemia
SW-620 colon = system: SW-620 colon
CAKI-1 renal = system: CAKI-1 renal
OVCAR-5 ovarian = system: OVCAR-5 ovarian
U251 CNS = system: U251 CNS
LXFL 529 NSCLC = system: LXFL 529 NSCLC
NCI-H23 lung = system: NCI-H23 lung
HCC-2998 colon = system: HCC-2998 colon
HOP-92 NSCLC = system: HOP-92 NSCLC
NCI-H226 lung = system: NCI-H226 lung
HOP-18 NSCLC = system: HOP-18 NSCLC
NCI-H522 lung = system: NCI-H522 lung
HL-60(TB) leukemia = system: HL-60(TB) leukemia
P388 leukemia = system: P388 leukemia
P388/ADR leukemia = system: P388/ADR leukemia
MCF7 breast = system: MCF7 breast
SN12K1 renal = system: SN12K1 renal
NCI/ADR-RES ovarian = system: NCI/ADR-RES ovarian
SR leukemia = system: SR leukemia

Measured: TGI

O=C1Nc2nc3ccccc3n2N=C2CCCC12 (stereo not given)
> 100 µM: A498 renal | XF 498 CNS | DLD-1 colon | TK-10 renal | M19-MEL melanoma | SNB-75 CNS | IGROV1 ovarian | MOLT-4 leukemia | RXF-631 renal | EKVX NSCLC | DMS 114 small cell lung | HOP-62 NSCLC | K-562 leukemia | OVCAR-8 ovarian | OVCAR-3 ovarian | RXF 393 renal | KM20L2 colon | SF-295 CNS | SF-539 CNS | NCI-H460 lung | HCT-15 colon | 786-0 renal | SF-268 CNS | UO-31 renal | DMS 273 small cell lung | UACC-257 melanoma | UACC-62 melanoma | SNB-19 CNS | HT29 colon | SK-MEL-5 melanoma | KM12 colon | HCT-116 colon | COLO 205 colon | MALME-3M melanoma | SK-MEL-28 melanoma | OVCAR-4 ovarian | M14 melanoma | SK-MEL-2 melanoma | A549 NSCLC | SK-OV-3 ovarian | ACHN renal | SNB-78 CNS | RPMI-8226 leukemia | SN12C renal | LOX IMVI melanoma | CCRF-CEM leukemia | SW-620 colon | CAKI-1 renal | OVCAR-5 ovarian | U251 CNS | LXFL 529 NSCLC | NCI-H23 lung | HCC-2998 colon

COC(=O)C(C#CCCCCC#CC(NC(=O)OCc1ccccc1)(C(=O)OC)C(F)(F)F)(NC(=O)OCc1ccccc1)C(F)(F)F (stereo not given)
> 100 µM: A498 renal | DLD-1 colon | TK-10 renal | M19-MEL melanoma | SNB-75 CNS | IGROV1 ovarian | RXF-631 renal | EKVX NSCLC | DMS 114 small cell lung | HOP-62 NSCLC | K-562 leukemia | OVCAR-8 ovarian | HOP-92 NSCLC | OVCAR-3 ovarian | RXF 393 renal | KM20L2 colon | SF-295 CNS | SF-539 CNS | NCI-H460 lung | HCT-15 colon | 786-0 renal | SF-268 CNS | UO-31 renal | NCI-H226 lung | UACC-257 melanoma | HOP-18 NSCLC | UACC-62 melanoma | SNB-19 CNS | HT29 colon | SK-MEL-5 melanoma | KM12 colon | HCT-116 colon | COLO 205 colon | MALME-3M melanoma | SK-MEL-28 melanoma | OVCAR-4 ovarian | M14 melanoma | A549 NSCLC | SK-OV-3 ovarian | ACHN renal | SNB-78 CNS | RPMI-8226 leukemia | SN12C renal | NCI-H522 lung | HL-60(TB) leukemia | LOX IMVI melanoma | CCRF-CEM leukemia | SW-620 colon | CAKI-1 renal | OVCAR-5 ovarian | U251 CNS | LXFL 529 NSCLC | NCI-H23 lung | HCC-2998 colon

CN(C)CC(CC1=C(CC(CN(C)C)N(C)C)CCC1)N(C)C (stereo not given)
> 100 µM: A498 renal | XF 498 CNS | DLD-1 colon | M19-MEL melanoma | SNB-75 CNS | P388 leukemia | IGROV1 ovarian | MOLT-4 leukemia | EKVX NSCLC | DMS 114 small cell lung | HOP-62 NSCLC | P388/ADR leukemia | K-562 leukemia | OVCAR-8 ovarian | HOP-92 NSCLC | MCF7 breast | OVCAR-3 ovarian | RXF 393 renal | KM20L2 colon | SF-295 CNS | SF-539 CNS | NCI-H460 lung | HCT-15 colon | SN12K1 renal | SF-268 CNS | UO-31 renal | NCI-H226 lung | DMS 273 small cell lung | UACC-257 melanoma | HOP-18 NSCLC | UACC-62 melanoma | SNB-19 CNS | HT29 colon | SK-MEL-5 melanoma | KM12 colon | HCT-116 colon | COLO 205 colon | MALME-3M melanoma | SK-MEL-28 melanoma | OVCAR-4 ovarian | SK-MEL-2 melanoma | A549 NSCLC | SK-OV-3 ovarian | RPMI-8226 leukemia | SN12C renal | NCI-H522 lung | HL-60(TB) leukemia | LOX IMVI melanoma | CCRF-CEM leukemia | SW-620 colon | CAKI-1 renal | OVCAR-5 ovarian | U251 CNS | NCI/ADR-RES ovarian | NCI-H23 lung | HCC-2998 colon

CC(=O)NNc1nc(C)c(C(=O)/C=C/c2ccccc2Cl)s1
> 100 µM: A498 renal | DLD-1 colon | TK-10 renal | M19-MEL melanoma | SNB-75 CNS | IGROV1 ovarian | MOLT-4 leukemia | RXF-631 renal | EKVX NSCLC | DMS 114 small cell lung | HOP-62 NSCLC | K-562 leukemia | OVCAR-8 ovarian | HOP-92 NSCLC | OVCAR-3 ovarian | RXF 393 renal | KM20L2 colon | SF-295 CNS | SF-539 CNS | NCI-H460 lung | HCT-15 colon | 786-0 renal | SF-268 CNS | UO-31 renal | NCI-H226 lung | DMS 273 small cell lung | UACC-257 melanoma | HOP-18 NSCLC | UACC-62 melanoma | SNB-19 CNS | HT29 colon | SK-MEL-5 melanoma | KM12 colon | COLO 205 colon | MALME-3M melanoma | SK-MEL-28 melanoma | SK-MEL-2 melanoma | A549 NSCLC | SK-OV-3 ovarian | ACHN renal | SNB-78 CNS | RPMI-8226 leukemia | SN12C renal | NCI-H522 lung | HL-60(TB) leukemia | LOX IMVI melanoma | CCRF-CEM leukemia | SW-620 colon | CAKI-1 renal | OVCAR-5 ovarian | U251 CNS | NCI-H23 lung | HCC-2998 colon

Nc1ccccc1S(=O)(=O)c1ccccc1
> 100 µM: A498 renal | DLD-1 colon | TK-10 renal | M19-MEL melanoma | SNB-75 CNS | IGROV1 ovarian | MOLT-4 leukemia | RXF-631 renal | EKVX NSCLC | DMS 114 small cell lung | HOP-62 NSCLC | K-562 leukemia | OVCAR-8 ovarian | HOP-92 NSCLC | OVCAR-3 ovarian | RXF 393 renal | KM20L2 colon | SF-295 CNS | SF-539 CNS | NCI-H460 lung | HCT-15 colon | SF-268 CNS | UO-31 renal | NCI-H226 lung | SR leukemia | DMS 273 small cell lung | UACC-257 melanoma | HOP-18 NSCLC | UACC-62 melanoma | SNB-19 CNS | HT29 colon | SK-MEL-5 melanoma | KM12 colon | HCT-116 colon | COLO 205 colon | MALME-3M melanoma | SK-MEL-28 melanoma | OVCAR-4 ovarian | M14 melanoma | SK-MEL-2 melanoma | A549 NSCLC | SK-OV-3 ovarian | ACHN renal | RPMI-8226 leukemia | SN12C renal | HL-60(TB) leukemia | LOX IMVI melanoma | CCRF-CEM leukemia | SW-620 colon | OVCAR-5 ovarian | U251 CNS | LXFL 529 NSCLC | NCI-H23 lung | HCC-2998 colon
